{"source": "patent US20050203119A1", "about": "“Dihydropyridine compounds for treating or preventing metabolic disorders” (priority 2003, published 2005)", "format_in_all_cases": "in vivo, mouse", "key": {"[1]": {"system": "male db/db mice (BKS.Cg-m+/+Lepr db/J)", "test": "Oral glucose tolerance test (OGTT) in db/db mice (Example 122, FIG. 4)", "conditions": "orally dosed", "experimental": "To determine the effect of a test compound on blood glucose levels in diabetic mice, intraperitoneal and/or oral glucose tolerance tests (IPGTT and OGTT, respectively) were conducted. Six to eight week old, male db/db mice (BKS.Cg-m+/+Lepr^db/J; stock number 000642), homozygous for a mutation in the gene encoding the leptin receptor, were purchased from The Jackson Laboratory (Bar Harbor, Me. USA). Animals were singly housed in conventional caging on a 12 hr/12 hr light/dark cycle, acclimated for at least five days prior to use and fed normal laboratory chow ad libitum between experiments. Studies were conducted with animals between seven and fourteen weeks of age. […]\nTo perform an IPGTT or OGTT, db/db mice were fasted overnight beginning on day 0 at −17.5 to −18.5 hrs relative to the glucose dose on day 1 (all time points below are stated relative to the time of an intraperitoneal or oral glucose dose on day 1). At −4.5 hrs, animals were weighed, blood was collected by tail vein lancing and fasted blood glucose levels determined using a hand-held glucometer (MediSense Precision Xtra or LifeScan OneTouch Ultra). […] Blood glucose levels were determined as above at −45 min and +45 min, and also +90 min and/or +150 min (see FIG. 3 and the Table in this section). Alternatively, blood glucose levels were determined at −30 min, +30 min, +60 min and +120 min (see FIGS. 4 and 5). […]"}, "[2]": {"system": "male db/db mice (C57BLKS/J-m+/+Lepr db/Iar)", "test": "Seven day baseline glucose (7DBG) study in fed db/db mice (Example 123, FIGS. 6 and 8)", "conditions": "oral once daily 7 days", "experimental": "(§1) To determine the effect of a test compound on blood glucose levels in fed diabetic mice, seven day baseline glucose (7DBG) studies were conducted. Six to eight week old, male db/db mice (C57BLKS/J-m+/+Lepr^db/Iar), homozygous for a mutation in the gene encoding the leptin receptor, were purchased from the Institute for Animal Reproduction (Kasumigaura, Japan). Six to eight week old male KK-A^y mice (KK-A^y/Ta Jcl), a polygenic diabetes model, were purchased from Cler Japan (Tokyo, Japan). Animals were housed four to a cage in micro-isolators on a 12 hr/12 hr light/dark cycle, acclimated for at least one week prior to use and fed normal laboratory chow ad libitum. Studies were conducted with animals between nine and fourteen weeks of age. […]\n(§2) To perform a 7DBG study, the starting glucose levels of db/db or KK-Ay mice in the fed state were determined on day 0, 24 hrs prior to the first drug dose on day 1. Animals were retro-orbitally bled and serum glucose levels measured by the mutarotase-glucose oxidase enzymatic method using a Glucose CII-Test Wako kit (Wako Pure Chemicals Industries, Ltd., Osaka, Japan). […] Serum glucose levels were determined 3 hrs after dosing the first compound on days 3 and 7.\nThe serum glucose levels on days 3 or 7 as a percent of the serum glucose levels on day 0 for individual animals in each group (6-7 mice/group), calculated using Formula 3: [formula] […]"}, "[3]": {"system": "male KK-Ay mice (KK-Ay/Ta Jcl)", "test": "Seven day baseline glucose (7DBG) study in fed KK-Ay mice (Example 123, FIG. 7)", "conditions": "oral once daily 7 days", "experimental": "as §1, §2\nThe serum glucose levels on days 3 or 7 as a percent of the serum glucose levels on day 0 for individual animals in each group (8 mice/group), were calculated using Formula 3. […]"}}}
{"smiles": "CCOC(=O)C1=C(COCCN)NC2=C(C(=O)CC(C)(C)C2)C1c1cccnc1", "note": "(stereo not shown) [Compound 39, 2-(2-Amino-ethoxymethyl)-7,7-dimethyl-5-oxo-4-pyridin-3-yl-1,4,5,6,7,8-hexahydro-quinoline-3-carboxylic acid ethyl ester]", "values": [{"measurement": "glucose intolerance relative to vehicle-treated animals (FIG. 4)", "setting": "[1]", "value": "decreased"}, {"measurement": "glucose lowering activities of rosiglitazone and metformin in combination with Compound 39 (FIG. 8)", "setting": "[2]", "value": "enhanced"}, {"measurement": "glucose lowering activities of rosiglitazone and metformin in combination with Compound 39 (FIG. 7)", "setting": "[3]", "value": "enhanced"}, {"measurement": "serum glucose (FIG. 7)", "setting": "[3]; Compound 39 alone", "value": "decreased serum glucose"}]}
